In ChEMBL document CHEMBL3120137, “Substituted benzene sulfonamides incorporating 1,3,5-triazinyl moieties potently inhibit human carbonic anhydrases II, IX and XII” (Bioorg Med Chem Lett, 2014):

Target: Carbonic anhydrase 9 (Homo sapiens, UniProt Q16790)
Assay: Inhibition of human transmembrane carbonic anhydrase 9 preincubated for 15 mins by stopped flow CO2 hydration assay

Row | SMILES | Ki [nM]
1 | CN(CCO)c1nc(Nc2ccc(S(N)(=O)=O)cc2)nc(N(C)CCO)n1 | 5.9
2 | NCCCNc1nc(NCCCN)nc(Nc2ccc(S(N)(=O)=O)cc2)n1 | 18.3
3 | COc1ccc(Nc2ccc(S(N)(=O)=O)cc2)nn1 | 8.5
4 | NS(=O)(=O)c1ccc(Nc2nc(N3CCOCC3)nc(N3CCOCC3)n2)cc1 | 34.1
5 | NCCCNc1nc(Cl)nc(Nc2ccc(S(N)(=O)=O)cc2)n1 | 21.4

Results, then the molecule that gave them:

Row | Ki [nM] | SMILES
6 | 21.2 | NS(=O)(=O)c1ccc(Nc2nc(Cl)nc(Nc3ccc(F)c(Cl)c3)n2)cc1
7 | 1.2 | CN(CCO)c1nc(Cl)nc(Nc2ccc(S(N)(=O)=O)cc2)n1
8 | 10.7 | Nc1cccnc1Nc1ccc(S(N)(=O)=O)cc1
9 | 2.4 | Nc1nc(N)nc(Nc2ccc(S(N)(=O)=O)cc2)n1
10 | 5.9 | NS(=O)(=O)c1ccc(Nc2nc(Cl)nc(Nc3ccccc3)n2)cc1
11 | 19.3 | CC(C)(C)Nc1nc(Nc2ccc(S(N)(=O)=O)cc2)nc(NC(C)(C)C)n1
12 | 10.2 | Cc1cccc(Nc2nc(Nc3ccc(S(N)(=O)=O)cc3)nc(N3CCOCC3)n2)c1
